Results taken from ChEMBL document CHEMBL5150076, “Discovery of Novel Orally Bioavailable Triazoles with Potent and Broad-Spectrum Antifungal Activity In Vitro and In Vivo” (J Med Chem, 2022).
≈ marks a conversion by molar mass, not a printed value. Calls of active or inactive are those of the source. The calls are words filed in the database; no cut-off is given here.

Tests used:
Candida albicans [1] = assay: Antifungal activity against Candida albicans SC5314 incubated for 24 hrs by microbroth dilution method; format: functional
[2] = Cytotoxicity against HUVEC assessed as cell viability at 64 ug/ml incubated for 24 hrs by CCK-8 assay; format: toxicity, cell-based; details: human, HUVEC cells, at 64 µg/mL, read-out: Activity
[3] = molecular target: T1, Lanosterol 14-alpha demethylase (Candida albicans (strain SC5314 / ATCC MYA-2876) (Yeast), UniProt P10613); assay: Inhibition of CYP51 in Candida albicans SC5314 assessed as sterol level at 4 ug/ml measured after 12 hrs by GC-MS analysis (reference value: 25.23%); design: scale not given: the % may be the effect or the level left; details: at 4 µg/mL
T1 sequence (P10613 whole entry): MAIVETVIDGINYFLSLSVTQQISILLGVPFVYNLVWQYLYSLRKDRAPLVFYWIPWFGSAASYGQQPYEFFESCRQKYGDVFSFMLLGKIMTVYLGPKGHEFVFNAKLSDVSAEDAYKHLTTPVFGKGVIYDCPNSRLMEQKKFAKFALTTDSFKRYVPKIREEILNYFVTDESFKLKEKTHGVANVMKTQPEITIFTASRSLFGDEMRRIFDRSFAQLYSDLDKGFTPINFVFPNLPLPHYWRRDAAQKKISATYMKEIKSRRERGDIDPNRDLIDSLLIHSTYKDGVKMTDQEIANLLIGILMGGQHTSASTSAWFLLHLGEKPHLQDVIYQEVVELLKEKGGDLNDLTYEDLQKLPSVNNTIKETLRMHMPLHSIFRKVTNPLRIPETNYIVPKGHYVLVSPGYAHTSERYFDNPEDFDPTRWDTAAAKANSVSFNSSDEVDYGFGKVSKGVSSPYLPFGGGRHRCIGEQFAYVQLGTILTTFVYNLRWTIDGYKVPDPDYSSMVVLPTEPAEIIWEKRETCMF

Candida parapsilosis [4] = assay: Antifungal activity against Candida parapsilosis 22019; format: functional; details: Lodderomyces parapsilosis
Candida albicans [5] = assay: Antifungal activity against Candida albicans Y0109; format: functional
[6] = Induction of drug resistance in Candida albicans SC5314 assessed as increase in MIC after 26 days; format: functional; details: SC5314, 624 h, time 26 day
Candida parapsilosis [7] = assay: Antifungal activity against Candida parapsilosis 90018; format: functional; details: Lodderomyces parapsilosis
Candida tropicalis [8] = assay: Antifungal activity against Candida tropicalis 112936; format: functional
Candida albicans [9] = assay: Antifungal activity against Candida albicans 14#; format: functional
[Candida] auris [10] = Antifungal activity against Candida auris BS12372; format: functional; details: Candidozyma auris
Candida albicans [11] = assay: Antifungal activity against Candida albicans SC5314 infected in ICR mouse assessed as delay in mortality at 0.5 mg/kg, po qd infected with fungus for 2 hrs prior to compound addition for 7 days and measured for 20 days; format: functional, organism-based; details: time 20.0 day
Candida albicans [12] = assay: Antifungal activity against Candida albicans 25#; format: functional
[13] = molecular target: T1, Lanosterol 14-alpha demethylase; assay: Inhibition of CYP51 in Candida albicans SC5314 assessed as lanosterol level at 4 ug/ml measured after 12 hrs by GC-MS analysis (reference value: 2.18%); design: scale not given: the % may be the effect or the level left; details: at 4 µg/mL
Cryptococcus neoformans [14] = assay: Antifungal activity against Cryptococcus neoformans H99 incubated for 72 hrs by microbroth dilution method; format: functional
Candida albicans [15] = assay: Antifungal activity against Candida albicans 28#; format: functional
[Candida] auris [16] = Antifungal activity against Candida auris 887; format: functional; details: Candidozyma auris
[17] = molecular target: T1, Lanosterol 14-alpha demethylase; assay: Inhibition of CYP51 in Candida albicans SC5314 assessed as lanosterol level at 0.5 ug/ml measured after 12 hrs by GC-MS analysis (reference value: 2.18%); design: scale not given: the % may be the effect or the level left; details: at 0.5 µg/mL
Pichia kudriavzevii [18] = assay: Antifungal activity against Candida krusei 629; format: functional
Cryptococcus neoformans [19] = assay: Antifungal activity against Cryptococcus neoformans H99 infected in ICR mouse assessed as median survival time at 2 mg/kg, po qd infected with fungus for 2 hrs prior to compound addition for 7 days and measured for 20 days; format: functional; details: time 20 day
Candida parapsilosis [20] = assay: Antifungal activity against Candida parapsilosis 660; format: functional; details: Lodderomyces parapsilosis
Nannizzia gypsea = assay: Antifungal activity against Microsporum gypseum; format: functional
Candida albicans [21] = assay: Antifungal activity against Candida albicans 100 infected in ICR mouse assessed as median survival time at 0.25 mg/kg, po qd infected with fungus for 2 hrs prior to compound addition for 7 days and measured for 20 days; format: functional; details: time 20 day
[Candida] auris [22] = Antifungal activity against Candida auris 791; format: functional; details: Candidozyma auris
Candida albicans [23] = assay: Antifungal activity against Candida albicans 20#; format: functional
[24] = molecular target: T1, Lanosterol 14-alpha demethylase; assay: Inhibition of CYP51 in Candida albicans SC5314 assessed as ergosterol level at 4 ug/ml measured after 12 hrs by GC-MS analysis (reference value: 72.58%); design: scale not given: the % may be the effect or the level left; details: at 4 µg/mL
Aspergillus fumigatus = assay: Antifungal activity against Aspergillus fumigatus 7544 incubated for 48 hrs by microbroth dilution method; format: functional
[25] = molecular target: T1, Lanosterol 14-alpha demethylase; assay: Inhibition of CYP51 in Candida albicans SC5314 assessed as eburicol level at 0.5 ug/ml measured after 12 hrs by GC-MS analysis (reference value: 0.00%); design: scale not given: the % may be the effect or the level left; details: at 0.5 µg/mL
in vitro = details: human, Caco-2 cells; at 64 µg/mL
Candida albicans [26] = assay: Antifungal activity against Candida albicans 305; format: functional
Candida albicans [27] = assay: Antifungal activity against Candida albicans 12#; format: functional
Cryptococcus neoformans [28] = assay: Antifungal activity against Cryptococcus neoformans H99 infected in ICR mouse assessed as delay in mortality at 2 mg/kg, po qd infected with fungus for 2 hrs prior to compound addition for 7 days and measured for 20 days; format: functional, organism-based; details: time 20.0 day
Cryptococcus neoformans [29] = assay: Antifungal activity against Cryptococcus neoformans 32605; format: functional
Trichophyton rubrum = assay: Antifungal activity against Trichophyton rubrum cmccftla; format: functional
Nakaseomyces glabratus [30] = assay: Antifungal activity against Candida glabrata 537; format: functional
Candida tropicalis [31] = assay: Antifungal activity against Candida tropicalis ATCC750; format: functional
Pichia kudriavzevii [32] = assay: Antifungal activity against Candida krusei 467; format: functional
Pichia kudriavzevii [33] = assay: Antifungal activity against Candida krusei 463; format: functional
[Candida] auris [34] = Antifungal activity against Candida auris D12; format: functional; details: Candidozyma auris
Nakaseomyces glabratus [35] = assay: Antifungal activity against Candida glabrata ATCC2001; format: functional
[36] = molecular target: T1, Lanosterol 14-alpha demethylase; assay: Inhibition of CYP51 in Candida albicans SC5314 assessed as eburicol level at 4 ug/ml measured after 12 hrs by GC-MS analysis (reference value: 0.00%); design: scale not given: the % may be the effect or the level left; details: at 4 µg/mL
Candida albicans [37] = assay: Antifungal activity against Candida albicans SC5314 infected in ICR mouse assessed as median survival time at 0.5 mg/kg, po qd infected with fungus for 2 hrs prior to compound addition for 7 days and measured for 20 days; format: functional; details: time 20 day
Candida albicans [38] = assay: Antifungal activity against Candida albicans 100 infected in ICR mouse assessed as delay in mortality at 0.25 mg/kg, po qd infected with fungus for 2 hrs prior to compound addition for 7 days and measured for 20 days; format: functional, organism-based; details: time 20.0 day
Pichia kudriavzevii [39] = assay: Antifungal activity against Candida krusei 397; format: functional
[40] = Induction of hemolysis in rabbit RBC at 64 ug/ml incubated for 1 hr; format: toxicity, cell-based, Oryctolagus cuniculus, Erythrocyte; details: red blood cells, at 64 µg/mL, read-out: Activity
Candida parapsilosis [41] = assay: Antifungal activity against Candida parapsilosis 700; format: functional; details: Lodderomyces parapsilosis
Candida albicans [42] = assay: Antifungal activity against Candida albicans 162; format: functional
[43] = Induction of drug resistance in Candida albicans SC5314 assessed as increase in MIC after 2 weeks (reference value: 0.5 microg/ml); format: functional; details: SC5314, 336 h
[44] = molecular target: T1, Lanosterol 14-alpha demethylase; assay: Inhibition of CYP51 in Candida albicans SC5314 assessed as sterol level at 0.5 ug/ml measured after 12 hrs by GC-MS analysis (reference value: 25.23%); design: scale not given: the % may be the effect or the level left; details: at 0.5 µg/mL

OC(Cn1cncn1)(Cn1cncn1)c1ccc(F)cc1F [FLUCONAZOLE]
MIC (Candida albicans [1]): 0.5 µg/mL (≈ 1.63 µM)
viability at 24 h, 64 ug/ml [2]: 88.4%
Activity [3]: 5.77%
MIC (Candida parapsilosis [4]): 2 µg/mL (≈ 6.53 µM)
MIC (Candida albicans [5]): 0.25 µg/mL (≈ 0.816 µM)
MIC [6]: 16 µg/mL
MIC (Candida parapsilosis [7]): 0.5 µg/mL (≈ 1.63 µM)
MIC (Candida tropicalis [8]): > 64 µg/mL
MIC (Candida albicans [9]): > 64 µg/mL
MIC ([Candida] auris [10]): > 64 µg/mL
Activity (Candida albicans [11]): Active
MIC (Candida albicans [12]): > 64 µg/mL
Activity [13]: 5.73%
MIC (Cryptococcus neoformans [14]): 0.5 µg/mL (≈ 1.63 µM)
MIC (Candida albicans [15]): 2 µg/mL (≈ 6.53 µM)
MIC ([Candida] auris [16]): > 64 µg/mL
Activity [17]: 18.14%
MIC (Pichia kudriavzevii [18]): 4 µg/mL (≈ 13.1 µM)
Time (Cryptococcus neoformans [19]): 8.5 days
MIC (Candida parapsilosis [20]): 0.5 µg/mL (≈ 1.63 µM)
MIC (Nannizzia gypsea): 32 µg/mL (≈ 104 µM)
Time (Candida albicans [21]): 8.5 days
MIC ([Candida] auris [22]): > 64 µg/mL
MIC (Candida albicans [23]): 0.5 µg/mL (≈ 1.63 µM)
Activity [24]: 0.62%
MIC (Aspergillus fumigatus): > 64 µg/mL
Activity [25]: 2.61%
viability at 24 h, 64 ug/ml (in vitro): 101%
MIC (Candida albicans [26]): > 64 µg/mL
MIC (Candida albicans [27]): > 64 µg/mL
Activity (Cryptococcus neoformans [28]): Active
MIC (Cryptococcus neoformans [29]): 0.5 µg/mL (≈ 1.63 µM)
MIC (Trichophyton rubrum): 8 µg/mL (≈ 26.1 µM)
MIC (Nakaseomyces glabratus [30]): 2 µg/mL (≈ 6.53 µM)
MIC (Candida tropicalis [31]): > 64 µg/mL
MIC (Pichia kudriavzevii [32]): 4 µg/mL (≈ 13.1 µM)
MIC (Pichia kudriavzevii [33]): 4 µg/mL (≈ 13.1 µM)
MIC ([Candida] auris [34]): > 64 µg/mL
MIC (Nakaseomyces glabratus [35]): 2 µg/mL (≈ 6.53 µM)
Activity [36]: 87.88%
Time (Candida albicans [37]): 14 days
Activity (Candida albicans [38]): Active
MIC (Pichia kudriavzevii [39]): 2 µg/mL (≈ 6.53 µM)
hemolysis at 1 h, 64 ug/ml [40]: 1.01%
MIC (Candida parapsilosis [41]): 2 µg/mL (≈ 6.53 µM)
MIC (Candida albicans [42]): > 64 µg/mL
MIC [43]: 4 µg/mL
Activity [44]: 4.69%
